Laboratory results from PMC5372986, “Diminished Antimicrobial Peptide and Antifungal Antibiotic Activities against Candida albicans in Denture Adhesive” (Antibiotics, 2017).
Like-named read-outs stand apart in the source and are kept apart here. Bridge positions count the residues as written; N and C are the ends. Ends that are not written are not given here. Peptide text beside a SMILES is read from it.

Assays:
C. albicans ATCC 64124 = experiment: microbe, parasite or virus in culture; conditions: for Activity in gels with 1.0% denture adhesive compared with gels without / Minimal inhibitory concentration (MIC): C. albicans ATCC 64124; for Activity in gels with 1.0% denture adhesive compared with gels without: result in words, Tukey HSD, 0.05 level; for MIC: Candida albicans
Protocol: (§1) C. albicans strains ATCC 64124 and HMV4C were used and cultivated as previously described. Their identities were verified (State Hygienic Laboratory, University of Iowa Research Park, Coralville, IA, USA). These cultures were adjusted to contain 1.2–3.7 × 10^6 CFU/mL in Roswell Park Memorial Institute (RPMI) 1640 medium.
(§2) The denture adhesive used was a standard, over-the-counter gel containing poly sodium-calcium mixed partial salt, petrolatum, cellulose gum, and mineral oil and was prepared as previously described. Denture adhesive was too viscous to use directly and was diluted to 1.0% for incorporation into the radial diffusion assay.
(§3) Each agent was reconstituted in distilled water with 0.01% acetic acid for resuspension to keep the agent in solution. Two-fold dilutions were prepared.
(§4) The radial diffusion assays were performed as described with the following unique modifications. Underlay agarose gels were prepared with and without 1.0% denture adhesive in square petri dishes (Electron Microscopy Sciences, Hatfield, PA, USA). Plates without 1.0% adhesive contained 12.5 mL of 10.0 mM sodium phosphate buffer adjusted to pH 7.4, 12.5 mL of 2.0% agarose (Agarose LE, Roche Diagnostics Corporation, Indianapolis, IN, USA) in 10.0 mM sodium phosphate adjusted to pH 7.4, and 1.0 mL of C. albicans culture per plate. Plates with 1.0% adhesive contained 12.5 mL of 2.0% dental adhesive in 10.0 mM sodium phosphate adjusted to pH 7.4, 12.5 mL 2.0% agarose (Agarose LE, Roche Diagnostics Corporation, Indianapolis, IN, USA) in 10.0 mM sodium phosphate adjusted to pH 7.4, and 1.0 mL of C. albicans culture. Wells of 2.0 mm in diameter were created and filled with 5.0 µL of AMP or antifungal antibiotic dilution (n = three replications per test). A blank of 0.01% acetic acid in distilled water was also included. The plates were incubated at 37 °C for 3 h. After incubation, 10.0 mL of overlay containing 1.0% agarose in 10.0 mM phosphate buffer with 6.0% RPMI 1640, was added to each plate. The plates were incubated at 37 °C overnight. At 24 h, antimicrobial activity was determined by measuring the zone of clearance around the center of each well and extrapolating MIC as described.
(§5) When MICs fell outside the range of the assay, we considered the MIC to be equal to the highest concentration used in the assay. […] One-way fixed-effects ANOVA models were fit to the µM MIC values. Pairwise group comparisons were conducted using the method of Tukey’s Honest Significant Differences (HSD). A 0.05 level was used to determine statistically significant differences. All analyses were conducted using JMP (Version 10.0, SAS, Cary, NC, USA).

C. albicans HMV4C = experiment: microbe, parasite or virus in culture; conditions: for Activity in gels with 1.0% denture adhesive compared with gels without / Minimal inhibitory concentration (MIC): C. albicans HMV4C; for Activity in gels with 1.0% denture adhesive compared with gels without: result in words, Tukey HSD, 0.05 level; for MIC: Candida albicans, HMV4C
Protocol: as §1, §2, §3, §4, §5

Candida albicans = conditions: broth microdilution, p < 0.05; cited from earlier work
Source text: Candida species infections can cause complications for individuals with dentures, such as denture stomatitis.

[1] = in both gels with or without 1.0% denture adhesive
[2] = No Adhesive, radial diffusion, mean (standard error, n = 3)
[3] = Adhesive (1.0% denture adhesive in gel), radial diffusion, mean (standard error, n = 3)
[4] = Adhesive (1.0% denture adhesive in gel), radial diffusion, pH 7.4, 37 °C, read at 24 h, mean (standard error, n = 3)

Row | Minimal inhibitory concentration (MIC) (C. albicans ATCC 64124; [1]) [µM] | Minimal inhibitory concentration (MIC) (C. albicans HMV4C; [2]) | Compound | Activity in gels with 1.0% denture adhesive compared with gels without (C. albicans ATCC 64124; radial diffusion) | Activity in gels with 1.0% denture adhesive compared with gels without (C. albicans HMV4C; radial diffusion) | Loss of antimicrobial activity in 1.0% denture adhesive (Candida albicans) | also measured
1 |  |  | C[C@@H]1[C@H](O)[C@@H](C)/C=C/C=C/C=C/C=C/C=C/C=C/C=C/[C@H](O[C@@H]2O[C@H](C)[C@@H](O)[C@H](N)[C@@H]2O)C[C@@H]2O[C@](O)(C[C@@H](O)C[C@@H](O)[C@H](O)CC[C@@H](O)C[C@@H](O)CC(=O)O[C@H]1C)C[C@H](O)[C@H]2C(=O)O [Amphotericin B] | same | same | did not | MIC (C. albicans ATCC 64124; ATCC64124, 24 h, pH 7.4, read-out: Minimal inhibitory concentration (MIC), C. albicans ATCC 64124, Adhesive (1.0% denture adhesive in gel), radial diffusion, pH 7.4, 37 °C, read at 24 h, mean (standard error, n = 3)): 16.6 µg/mL; MIC (C. albicans ATCC 64124; ATCC64124, 24 h, pH 7.4, read-out: Minimal inhibitory concentration (MIC), C. albicans ATCC 64124, No Adhesive, radial diffusion, pH 7.4, 37 °C, read at 24 h, mean (standard error, n = 3)): 6 µg/mL; MIC (C. albicans ATCC 64124; ATCC64124, read-out: Minimal inhibitory concentration (MIC), C. albicans ATCC 64124, Adhesive (1.0% denture adhesive in gel), radial diffusion, mean (standard error, n = 3)): 18 µM; MIC (C. albicans ATCC 64124; ATCC64124, read-out: Minimal inhibitory concentration (MIC), C. albicans ATCC 64124, No Adhesive, radial diffusion, mean (standard error, n = 3)): 6.5 µM; MIC (C. albicans HMV4C; 24 h, pH 7.4, read-out: Minimal inhibitory concentration (MIC), C. albicans HMV4C, Adhesive (1.0% denture adhesive in gel), radial diffusion, pH 7.4, 37 °C, read at 24 h, mean (standard error, n = 3)): 6.2 µg/mL; MIC (C. albicans HMV4C; 24 h, pH 7.4, read-out: Minimal inhibitory concentration (MIC), C. albicans HMV4C, No Adhesive, radial diffusion, agarose in 10.0 mM sodium phosphate pH 7.4, 37 °C, read at 24 h, mean (standard error, n = 3)): 5.4 µg/mL; MIC (C. albicans HMV4C; read-out: Minimal inhibitory concentration (MIC), C. albicans HMV4C, Adhesive (1.0% denture adhesive in gel), radial diffusion, mean (standard error, n = 3)): 6.7 µM; MIC (C. albicans HMV4C; read-out: Minimal inhibitory concentration (MIC), C. albicans HMV4C, No Adhesive, radial diffusion, mean (standard error, n = 3)): 5.8 µM
2 | > 254.1 | >254.1 (0.0) µM | CC[C@H](C)[C@@H]1NC(=O)[C@H](CCCCN)NC(=O)[C@H]([C@@H](C)O)NC(=O)[C@H](Cc2ccccc2)NC(=O)[C@H]([C@@H](C)CC)NC(=O)[C@@H]2CCCN2C(=O)[C@@H]2CSSC[C@@H](C(=O)N[C@@H](CCCCN)C(=O)O)NC(=O)[C@@H]3CSSC[C@H](NC(=O)[C@H](CC(N)=O)NC(=O)[C@H](Cc4ccc(O)cc4)NC(=O)[C@H](Cc4c[nH]cn4)NC(=O)[C@@H](N)CC(=O)O)C(=O)N[C@@H](C(C)C)C(=O)N[C@@H](CO)C(=O)N[C@@H](CO)C(=O)NCC(=O)NCC(=O)N[C@@H](CCC(N)=O)C(=O)N[C@@H](CSSC[C@H](NC(=O)[C@H]([C@@H](C)O)NC(=O)CNC(=O)[C@H](CCC(N)=O)NC1=O)C(=O)N[C@@H](Cc1ccc(O)cc1)C(=O)N[C@@H](CCCNC(=N)N)C(=O)NCC(=O)N[C@@H](CCCCN)C(=O)N[C@@H](C)C(=O)N[C@@H](CCCCN)C(=O)N3)C(=O)N[C@@H](CC(C)C)C(=O)N[C@@H](Cc1ccc(O)cc1)C(=O)N[C@@H](CO)C(=O)N[C@@H](C)C(=O)N2 [HBD-1] (H-DHYNCVSSGGQCLYSACPIFTKIQGTCYRGKAKCCK-OH; disulfide 5-34, 12-27, 17-35 (inferred); N-terminus and C-terminus assumed) |  |  |  | Minimal inhibitory concentration (MIC) (C. albicans HMV4C; [1]): > 254.1 µM
3 | > 329.0 |  | C[C@H](NC(=O)[C@H](Cc1c[nH]cn1)NC(=O)[C@H](CO)NC(=O)[C@@H](N)CC(=O)O)C(=O)N[C@@H](CCCCN)C(=O)N[C@@H](CCCNC(=N)N)C(=O)N[C@@H](Cc1c[nH]cn1)C(=O)N[C@@H](Cc1c[nH]cn1)C(=O)NCC(=O)N[C@@H](Cc1ccc(O)cc1)C(=O)N[C@@H](CCCCN)C(=O)N[C@@H](CCCNC(=N)N)C(=O)N[C@@H](CCCCN)C(=O)N[C@@H](Cc1ccccc1)C(=O)N[C@@H](Cc1c[nH]cn1)C(=O)N[C@@H](CCC(=O)O)C(=O)N[C@@H](CCCCN)C(=O)N[C@@H](Cc1c[nH]cn1)C(=O)N[C@@H](Cc1c[nH]cn1)C(=O)N[C@@H](CO)C(=O)N[C@@H](Cc1c[nH]cn1)C(=O)N[C@@H](CCCNC(=N)N)C(=O)NCC(=O)N[C@@H](Cc1ccc(O)cc1)C(=O)O [Histatin 5] |  | diminished activity |  | 
4 |  |  | CCCCCCCCCCCCCCC[C@@H](O)[C@@H](N)CO [dihydrosphingosine] |  |  | lost antimicrobial activity | 
5 |  |  | CCCCCCCCCCCCCC[C@@H](O)[C@@H](O)[C@@H](N)CO [phytosphingosine] |  |  | lost antimicrobial activity | 
6 |  |  | CCCCCCCCCCCCC/C=C/[C@@H](O)[C@@H](N)CO [sphingosine] |  |  | lost antimicrobial activity | 
7 |  |  | GIGDPVTCLKSGAICHPVFCPRRYKQIGTCGLPGTKCCKKP (disulfide 8-37, 15-30, 20-38 (inferred)) [HBD-2] | diminished activity | diminished activity |  | 
8 |  |  | GIINTLQKYYCRVRGGRCAVLSCLPKEEQIGKCSTRGRKCCRRKK (disulfide 11-40, 18-33, 23-41 (inferred)) [HBD-3] | diminished activity | diminished activity |  | 
9 |  | 2.2 (0.0) µM | IP-10: recombinant human CXCL10 (Peprotech) | diminished activity | diminished activity |  | Minimal inhibitory concentration (MIC) (C. albicans ATCC 64124; [4]): >1000.0 (0.0) µg/mL; Minimal inhibitory concentration (MIC) (C. albicans ATCC 64124; [3]): >115.7 (0.0) µM; Minimal inhibitory concentration (MIC) (C. albicans ATCC 64124; No Adhesive, radial diffusion, pH 7.4, 37 °C, read at 24 h, mean (standard error, n = 3)): 103.6 (3.2) µg/mL; Minimal inhibitory concentration (MIC) (C. albicans ATCC 64124; [2]): 12.0 (0.4) µM; Minimal inhibitory concentration (MIC) (C. albicans HMV4C; [4]): >200.0 (0.0) µg/mL; Minimal inhibitory concentration (MIC) (C. albicans HMV4C; [3]): >23.1 (0.0) µM; Minimal inhibitory concentration (MIC) (C. albicans HMV4C; No Adhesive, radial diffusion, agarose in 10.0 mM sodium phosphate pH 7.4, 37 °C, read at 24 h, mean (standard error, n = 3)): 18.6 (0.3) µg/mL

Row | Compound | Minimal inhibitory concentration (MIC) (C. albicans ATCC 64124; [1]) [µM] | Minimal inhibitory concentration (MIC) (C. albicans HMV4C; [2]) | Activity in gels with 1.0% denture adhesive compared with gels without (C. albicans ATCC 64124; radial diffusion) | Activity in gels with 1.0% denture adhesive compared with gels without (C. albicans HMV4C; radial diffusion) | Loss of antimicrobial activity in 1.0% denture adhesive (Candida albicans) | also measured
10 | CC[C@H](C)[C@H](NC(=O)[C@H](CCCCN)NC(=O)[C@H](CCC(=O)O)NC(=O)[C@H](CCCCN)NC(=O)[C@H](CO)NC(=O)[C@H](CCCCN)NC(=O)[C@H](CCCNC(=N)N)NC(=O)[C@H](Cc1ccccc1)NC(=O)[C@H](Cc1ccccc1)NC(=O)[C@H](CC(=O)O)NC(=O)CNC(=O)[C@H](CC(C)C)NC(=O)[C@@H](N)CC(C)C)C(=O)NCC(=O)N[C@@H](CCCCN)C(=O)N[C@@H](CCC(=O)O)C(=O)N[C@@H](Cc1ccccc1)C(=O)N[C@@H](CCCCN)C(=O)N[C@@H](CCCNC(=N)N)C(=O)N[C@H](C(=O)N[C@H](C(=O)N[C@@H](CCC(N)=O)C(=O)N[C@@H](CCCNC(=N)N)C(=O)N[C@H](C(=O)N[C@@H](CCCCN)C(=O)N[C@@H](CC(=O)O)C(=O)N[C@@H](Cc1ccccc1)C(=O)N[C@@H](CC(C)C)C(=O)N[C@@H](CCCNC(=N)N)C(=O)N[C@@H](CC(N)=O)C(=O)N[C@@H](CC(C)C)C(=O)N[C@H](C(=O)N1CCC[C@H]1C(=O)N[C@@H](CCCNC(=N)N)C(=O)N[C@H](C(=O)N[C@@H](CCC(=O)O)C(=O)N[C@@H](CO)C(=O)O)[C@@H](C)O)C(C)C)[C@@H](C)CC)C(C)C)[C@@H](C)CC [LL37] | > 222.4 | 30.4 (1.0) µM |  | diminished activity |  | Minimal inhibitory concentration (MIC) (C. albicans ATCC 64124; [3]): >222.4 (0.0) µM; Minimal inhibitory concentration (MIC) (C. albicans ATCC 64124; [2]): >222.4 (0.0) µM; Minimal inhibitory concentration (MIC) (C. albicans HMV4C; [3]): >222.4 (0.0) µM
